The values below are quoted from earlier work in patent publication US6503482B1, “Non-chlorofluorocarbon aerosol formulations” (Schering Corporation, priority 1993, dated 2003).

The conditions of this data set: absolute pressure.

Like-named read-outs stand apart in the source and are kept apart here.

On to `FCC(F)(F)F` [HFC 134a, 1,1,1,2 tetrafluoroethane], for which the vapor pressure is listed as 84.7 psia (same value in psia) and 5.84×10^5 newton/meter^2 absolute (stated too high for use in metered dose inhalators).
